US20060069132A1, “Azolecarboxamide herbicides” (priority 2004, published 2006)

What was measured:
annual bluegrass = test: Test E pre-/postemergence herbicide test; format: in vivo, Poa annua; conditions: Preemergence
Summary of the method: (§1)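 Herbicidal effect scored visually, 0–100 scale, versus controls. Treatments: preemergence on planted seed; postemergence on 2–18 cm seedlings. Greenhouse, 12 to 14 days.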

Italian ryegrass [1] = test: Test C postemergence herbicide test; format: in vivo, Lolium multiflorum
Summary of the method: (§2)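 Plants were grown to the 1- to 4-leaf stage (2–18 cm) and then treated postemergence, or grown to the 2-leaf stage for the flooded paddy test. They were held in a greenhouse for 12 to 14 days and then scored by eye against controls, where 0 is no effect and 100 is complete control.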

blackgrass = test: Test C postemergence herbicide test; format: in vivo, Alopecurus myosuroides
Summary of the method: as §2

common chickweed = test: Test E pre-/postemergence herbicide test; format: in vivo, Stellaria media; conditions: Preemergence
Summary of the method: as §1

prickly sida = test: Test E pre-/postemergence herbicide test; format: in vivo, Sida spinosa; conditions: Preemergence
Summary of the method: as §1

downy bromegrass = test: Test C postemergence herbicide test; format: in vivo, Bromus tectorum
Summary of the method: as §2

common mallow = test: Test E pre-/postemergence herbicide test; format: in vivo, Malva sylvestris; conditions: Preemergence
Summary of the method: as §1

mustard = test: Test E pre-/postemergence herbicide test; format: in vivo, Brassica nigra; conditions: Preemergence
Summary of the method: as §1

tropical spiderwort = test: Test E pre-/postemergence herbicide test; format: in vivo, Commelina benghalensis; conditions: Preemergence
Summary of the method: as §1

wild oat = test: Test C postemergence herbicide test; format: in vivo, Avenafatua
Summary of the method: as §2

Italian ryegrass [2] = test: Test E pre-/postemergence herbicide test; format: in vivo, Lolium multiflorum; conditions: Preemergence
Summary of the method: as §1

pitted morningglory = test: Test E pre-/postemergence herbicide test; format: in vivo, Ipomoea lacunosa; conditions: Preemergence
Summary of the method: as §1

Canada horseweed = test: Test E pre-/postemergence herbicide test; format: in vivo, Erigeron Canadensis; conditions: Preemergence
Summary of the method: as §1

windgrass = test: Test C postemergence herbicide test; format: in vivo, Apera spica-venti
Summary of the method: as §2

[3] = 250 g ai/ha, scale 0 (no effect) to 100 (complete control)
[4] = 500 g ai/ha, scale 0 (no effect) to 100 (complete control)
[5] = postemergence, 125 g ai/ha, scale 0 to 100
[6] = postemergence, 62 g ai/ha, scale 0 to 100
[7] = Postemergence, 250 g ai/ha, scale 0 to 100, 0 no effect, 100 complete control
[8] = postemergence, 31 g ai/ha, scale 0 to 100
[9] = Postemergence, 500 g ai/ha, scale 0 to 100, 0 no effect, 100 complete control

CCc1nn(C(C)(C)C)nc1C(=O)Nc1cccc(C(=O)N(C)CC)c1 [Compound 384]
Plant response rating, Bluegrass (annual bluegrass; 62 g ai/ha, scale 0 to 100): 50
Plant response rating, Bluegrass (annual bluegrass; 125 g ai/ha, scale 0 to 100): 75
Plant response rating, Bluegrass (annual bluegrass; [3]): 80
Plant response rating, Bluegrass (annual bluegrass; [4]): 95
Plant response rating, Ryegrass, Italian (Italian ryegrass [1]; [5]): 55
Plant response rating, Ryegrass, Italian (Italian ryegrass [1]; [6]): 45
Plant response rating, Blackgrass (blackgrass; [7]): 45
Plant response rating, Blackgrass (blackgrass; [5]): 45
Plant response rating, Blackgrass (blackgrass; [8]): 45
Plant response rating, Blackgrass (blackgrass; [6]): 45
Plant response rating, Chickweed (common chickweed; 62 g ai/ha, scale 0 to 100): 75
Plant response rating, Chickweed (common chickweed; 125 g ai/ha, scale 0 to 100): 95
Plant response rating, Chickweed (common chickweed; [3]): 95
Plant response rating, Chickweed (common chickweed; [4]): 100
Plant response rating, Prickly Sida (prickly sida; 62 g ai/ha, scale 0 to 100): 60
Plant response rating, Prickly Sida (prickly sida; [3]): 60
Plant response rating, Prickly Sida (prickly sida; [4]): 95
Plant response rating, Bromegrass, Downy (downy bromegrass; [7]): 55
Plant response rating, Bromegrass, Downy (downy bromegrass; [5]): 45
Plant response rating, Bromegrass, Downy (downy bromegrass; [8]): 30
Plant response rating, Bromegrass, Downy (downy bromegrass; [6]): 40
Plant response rating, Mallow (common mallow; 62 g ai/ha, scale 0 to 100): 50
Plant response rating, Mallow (common mallow; 125 g ai/ha, scale 0 to 100): 70
Plant response rating, Mallow (common mallow; [3]): 70
Plant response rating, Mallow (common mallow; [4]): 95
Plant response rating, Black Mustard (mustard; 62 g ai/ha, scale 0 to 100): 60
Plant response rating, Black Mustard (mustard; 125 g ai/ha, scale 0 to 100): 80
Plant response rating, Black Mustard (mustard; [3]): 85
Plant response rating, Black Mustard (mustard; [4]): 100
Plant response rating, Spiderwort (tropical spiderwort; 125 g ai/ha, scale 0 to 100): 30
Plant response rating, Spiderwort (tropical spiderwort; [3]): 60
Plant response rating, Spiderwort (tropical spiderwort; [4]): 95
Plant response rating, Oat, Wild (wild oat; [5]): 45
Plant response rating, Oat, Wild (wild oat; [6]): 35
Plant response rating, Ryegrass, Italian (Italian ryegrass [2]; 62 g ai/ha, scale 0 to 100): 20
Plant response rating, Ryegrass, Italian (Italian ryegrass [2]; 125 g ai/ha, scale 0 to 100): 75
Plant response rating, Ryegrass, Italian (Italian ryegrass [2]; [3]): 80
Plant response rating, Ryegrass, Italian (Italian ryegrass [2]; [4]): 95
Plant response rating, Morningglory (pitted morningglory; 62 g ai/ha, scale 0 to 100): 10
Plant response rating, Morningglory (pitted morningglory; 125 g ai/ha, scale 0 to 100): 60
Plant response rating, Morningglory (pitted morningglory; [3]): 80
Plant response rating, Morningglory (pitted morningglory; [4]): 90
Plant response rating, Horseweed (Canada horseweed; 125 g ai/ha, scale 0 to 100): 75
Plant response rating, Horseweed (Canada horseweed; [3]): 95
Plant response rating, Horseweed (Canada horseweed; [4]): 100
Plant response rating, Windgrass (windgrass; [5]): 45
Plant response rating, Windgrass (windgrass; [6]): 45

CCNC(=O)c1cccc(NC(=O)c2nn(C(C)(C)C)nc2C)c1 [Compound 392]
Plant response rating, Bluegrass (annual bluegrass; 62 g ai/ha, scale 0 to 100): 10
Plant response rating, Bluegrass (annual bluegrass; 125 g ai/ha, scale 0 to 100): 80
Plant response rating, Bluegrass (annual bluegrass; [3]): 80
Plant response rating, Bluegrass (annual bluegrass; [4]): 100
Plant response rating, Ryegrass, Italian (Italian ryegrass [1]; [9]): 65
Plant response rating, Ryegrass, Italian (Italian ryegrass [1]; [5]): 50
Plant response rating, Ryegrass, Italian (Italian ryegrass [1]; [6]): 35
Blackgrass plant response rating (blackgrass; Postemergence, 500 g ai/ha, scale 0 to 100): 65
Plant response rating, Blackgrass (blackgrass; [7]): 45
Plant response rating, Blackgrass (blackgrass; [5]): 45
Plant response rating, Blackgrass (blackgrass; [6]): 35
Plant response rating, Chickweed (common chickweed; 62 g ai/ha, scale 0 to 100): 60
Plant response rating, Chickweed (common chickweed; 125 g ai/ha, scale 0 to 100): 95
Plant response rating, Chickweed (common chickweed; [3]): 95
Plant response rating, Chickweed (common chickweed; [4]): 95
Plant response rating, Prickly Sida (prickly sida; [3]): 75
Plant response rating, Prickly Sida (prickly sida; [4]): 100
Plant response rating, Bromegrass, Downy (downy bromegrass; [7]): 55
Plant response rating, Bromegrass, Downy (downy bromegrass; [9]): 60
Plant response rating, Bromegrass, Downy (downy bromegrass; [5]): 55
Plant response rating, Bromegrass, Downy (downy bromegrass; [6]): 35
Plant response rating, Mallow (common mallow; 62 g ai/ha, scale 0 to 100): 10
Plant response rating, Mallow (common mallow; 125 g ai/ha, scale 0 to 100): 80
Plant response rating, Mallow (common mallow; [3]): 95
Plant response rating, Mallow (common mallow; [4]): 95
Plant response rating, Black Mustard (mustard; 62 g ai/ha, scale 0 to 100): 60
Plant response rating, Black Mustard (mustard; [3]): 85
Plant response rating, Black Mustard (mustard; [4]): 100
Plant response rating, Spiderwort (tropical spiderwort; 125 g ai/ha, scale 0 to 100): 50
Plant response rating, Spiderwort (tropical spiderwort; [3]): 95
Plant response rating, Spiderwort (tropical spiderwort; [4]): 100
Plant response rating, Oat, Wild (wild oat; [9]): 60
Plant response rating, Oat, Wild (wild oat; [5]): 40
Plant response rating, Oat, Wild (wild oat; [6]): 30
Plant response rating, Ryegrass, Italian (Italian ryegrass [2]; 62 g ai/ha, scale 0 to 100): 10
Plant response rating, Ryegrass, Italian (Italian ryegrass [2]; 125 g ai/ha, scale 0 to 100): 60
Plant response rating, Ryegrass, Italian (Italian ryegrass [2]; [3]): 70
Plant response rating, Ryegrass, Italian (Italian ryegrass [2]; [4]): 80
Plant response rating, Morningglory (pitted morningglory; 62 g ai/ha, scale 0 to 100): 10
Plant response rating, Morningglory (pitted morningglory; 125 g ai/ha, scale 0 to 100): 40
Plant response rating, Morningglory (pitted morningglory; [3]): 40
Plant response rating, Morningglory (pitted morningglory; [4]): 75
Plant response rating, Horseweed (Canada horseweed; 62 g ai/ha, scale 0 to 100): 60
Plant response rating, Horseweed (Canada horseweed; 125 g ai/ha, scale 0 to 100): 60
Plant response rating, Horseweed (Canada horseweed; [3]): 75
Plant response rating, Horseweed (Canada horseweed; [4]): 85
Plant response rating, Windgrass (windgrass; [9]): 65
Plant response rating, Windgrass (windgrass; [5]): 55
Plant response rating, Windgrass (windgrass; [6]): 35
